Read-outs that look alike come from different tables or passages of the source.
How the values were obtained:
BRD4 (BDI_K57-E168) = target: T1, BRD4 (BDI_K57-E168) (Homo sapiens, UniProt O60885); experiment: TR-FRET bromodomain binding assay, first bromodomain of BRD4; settings: 100 nM probe
T1 construct: BD1: amino acids K57-E168; made in house
How it was run: (§1)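 Probe displacement by TR-FRET: 8 nM His-BRD4 bromodomain, 1 nM Eu-anti-His, Alexa647 BET-inhibitor probe at 100 nM (BDI) or 30 nM (BDII); 20 mM Na phosphate pH 6.0, 2% DMSO; 1 h RT. Ex 340, Em 495/520. IC50 from 4PL fit; Ki from IC50, probe Kd and probe concentration.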

BRD4 (BDII_E352-M457) = target: T2, BRD4 (BDII_E352-M457) (Homo sapiens, UniProt O60885); experiment: TR-FRET bromodomain binding assay, second bromodomain of BRD4; settings: 30 nM probe
T2 construct: protocol; made in house
How it was run: as §1

[1] = test system: breast cancer cell line MX-1; experiment: MX-1 cell line proliferation assay; format: cell-based; settings: MX-1 cells, 3-day proliferation assay, Cell Titer Glo, read-out: Cellular proliferation: EC50
How it was run: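 MX-1 cells at 5000/well, in RPMI 1640 with 10% FBS, were exposed to compounds for 3 days. Final concentrations ranged 3 μM–0.1 nM or 1 μM–0.03 nM, in 3-fold steps. Cell Titer Glo luminescence was normalized to DMSO and fitted sigmoidally for EC50; overall MSR 2.1.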

[2] = TR-FRET assay protocol G (compound 0.92 μM-15 pM)
[3] = TR-FRET assay protocol E (compound 9.19 μM-150 pM)

Molecule	Ki (BRD4 (BDI_K57-E168); [2]) [nM]	Ki (BRD4 (BDII_E352-M457); [2]) [nM]	EC50 [1] [nM]	Ki (BRD4 (BDI_K57-E168); [3]) [nM]	Ki (BRD4 (BDII_E352-M457); [3]) [nM]	EC50 ([1]; Homo sapiens, MX1, 72 h) [nM]
CN(C)CCCC1c2c[nH]c3c(=O)n(C)cc(c23)-c2cc(CS(C)(=O)=O)ccc2N1c1ccc(F)cc1F (racemic) [Example 175, 4-(2,4-difluorophenyl)-3-(3-(dimethylamino)propyl)-10-methyl-7-((methylsulfonyl)methyl)-3,4-dihydro-1H-1,4,10-triazadibenzo[cd,f]azulen-11(10H)-one]	15	1.9	99.9	–	–	–
Cn1cc2c3c(c[nH]c3c1=O)C(CCCCCCO)N(c1ccc(F)cc1F)c1ccc(CS(C)(=O)=O)cc1-2 (stereo not drawn) [Example 136, 4-(2,4-difluorophenyl)-3-(6-hydroxyhexyl)-10-methyl-7-((methylsulfonyl)methyl)-3,4-dihydro-1H-1,4,10-triazadibenzo[cd,f]azulen-11(10H)-one]	13.2	1.33	49.2	–	–	–
Cn1cc2c3c(c[nH]c3c1=O)C(CCC(=O)NC1CCOCC1)N(c1ccc(F)cc1F)c1ccc(CS(C)(=O)=O)cc1-2 (stereo not drawn) [Example 121, 3-(4-(2,4-difluorophenyl)-10-methyl-7-((methylsulfonyl)methyl)-11-oxo-3,4,10,11-tetrahydro-1H-1,4,10-triazadibenzo[cd,f]azulen-3-yl)-N-(tetrahydro-2H-pyran-4-yl)propanamide]	6.65	0.799	> 1000	–	–	–
Cn1cc2c3c(c[nH]c3c1=O)C(c1ccc(C#N)cc1)N(c1ccc(F)cc1F)c1ccc(CS(C)(=O)=O)cc1-2 (racemic) [Example 235, 4-(4-(2,4-difluorophenyl)-10-methyl-7-((methylsulfonyl)methyl)-11-oxo-3,4,10,11-tetrahydro-1H-1,4,10-triazadibenzo[cd,f]azulen-3-yl)benzonitrile]	16.1	6.51	162	–	–	–
CNC(=O)CCC1c2c[nH]c3c(=O)n(C)cc(c23)-c2cc(CS(C)(=O)=O)ccc2N1c1ccc(F)cc1F (stereo not drawn) [Example 118, 3-(4-(2,4-difluorophenyl)-10-methyl-7-((methylsulfonyl)methyl)-11-oxo-3,4,10,11-tetrahydro-1H-1,4,10-triazadibenzo[cd,f]azulen-3-yl)-N-methylpropanamide]	12.6	1.38	174	–	–	–
Cn1cc2c3c(c[nH]c3c1=O)C(CC(C)(C)C)N(c1ccc(F)cc1F)c1ccc(CS(C)(=O)=O)cc1-2 (stereo not drawn) [Example 219, 4-(2,4-difluorophenyl)-10-methyl-7-((methylsulfonyl)methyl)-3-neopentyl-3,4-dihydro-1H-1,4,10-triazadibenzo[cd,f]azulen-11(10H)-one]	39.9	4.76	301	–	–	–
Cn1cc2c3c(c[nH]c3c1=O)C(CN1Cc3ccccc3C1=O)N(c1ccc(F)cc1F)c1ccc(CS(C)(=O)=O)cc1-2 (stereo not drawn) [Example 220, 4-(2,4-difluorophenyl)-10-methyl-7-((methylsulfonyl)methyl)-3-((1-oxoisoindolin-2-yl)methyl)-3,4-dihydro-1H-1,4,10-triazadibenzo[cd,f]azulen-11(10H)-one]	51.6	2.61	285	–	–	–
Cn1cc2c3c(c[nH]c3c1=O)C(c1cccc(-c3ccccn3)c1)N(c1ccc(F)cc1F)c1ccc(CS(C)(=O)=O)cc1-2 (racemic) [Example 236, 4-(2,4-difluorophenyl)-10-methyl-7-((methylsulfonyl)methyl)-3-(3-(pyridin-2-yl)phenyl)-3,4-dihydro-1H-1,4,10-triazadibenzo[cd,f]azulen-11(10H)-one]	85.9	30	> 1000	–	–	–
Cc1cccc(C)c1NC(=O)N1Cc2c[nH]c3c(=O)n(C)cc(c23)-c2cc(CS(C)(=O)=O)ccc21 [Example 61, N-(2,6-dimethylphenyl)-10-methyl-7-((methylsulfonyl)methyl)-11-oxo-10,11-dihydro-1H-1,4,10-triazadibenzo[cd,f]azulene-4(3H)-carboxamide]	21.1	3.74	> 1000	–	–	–
Cn1cc2c3c(c[nH]c3c1=O)C(CCCO)N(c1ccc(F)cc1F)c1ccc(CS(C)(=O)=O)cc1-2 (stereo not drawn) [Example 142, 4-(2,4-difluorophenyl)-3-(3-hydroxypropyl)-10-methyl-7-((methylsulfonyl)methyl)-3,4-dihydro-1H-1,4,10-triazadibenzo[cd,f]azulen-11(10H)-one]	8.61	0.6	51.8	–	–	–
COC1CCN(C(=O)C2c3c[nH]c4c(=O)n(C)cc(c34)-c3cc(CS(C)(=O)=O)ccc3N2c2ccc(F)cc2)CC1 (stereo not drawn) [Example 40]	29.4	136	398	–	–	–
Cn1cc2c3c(c[nH]c3c1=O)C(C(=O)NCc1ccccc1)N(c1ccc(F)cc1F)c1ccc(CS(C)(=O)=O)cc1-2 (racemic) [Example 159, N-benzyl-4-(2,4-difluorophenyl)-10-methyl-7-((methylsulfonyl)methyl)-11-oxo-3,4,10,11-tetrahydro-1H-1,4,10-triazadibenzo[cd,f]azulene-3-carboxamide]	38.6	19.8	57.8	–	–	–
COC(=O)CCC1c2c[nH]c3c(=O)n(C)cc(c23)-c2cc(CS(C)(=O)=O)ccc2N1CC1CC1 (stereo not drawn) [Example 14, methyl 3-(4-(cyclopropylmethyl)-10-methyl-7-((methylsulfonyl)methyl)-11-oxo-3,4,10,11-tetrahydro-1H-1,4,10-triazadibenzo[cd,f]azulen-3-yl)propanoate]	–	–	14.6	6.9	0.882	–
CCOC(=O)C1c2c[nH]c3c(=O)n(C)cc(c23)-c2cc(CS(C)(=O)=O)ccc2N1c1ccc(F)cc1 [Example 85, (S)-ethyl 4-(4-fluorophenyl)-10-methyl-7-((methylsulfonyl)methyl)-11-oxo-3,4,10,11-tetrahydro-1H-1,4,10-triazadibenzo[cd,f]azulene-3-carboxylate]	10.8	11.1	48.9	–	–	–

Continued, values first:

Ki (BRD4 (BDI_K57-E168); [2]) [nM]	Ki (BRD4 (BDII_E352-M457); [2]) [nM]	EC50 [1] [nM]	Ki (BRD4 (BDI_K57-E168); [3]) [nM]	Ki (BRD4 (BDII_E352-M457); [3]) [nM]	EC50 ([1]; Homo sapiens, MX1, 72 h) [nM]	Molecule
6.03	3.49	6.02	–	–	–	Cn1cc2c3c(c[nH]c3c1=O)CN(C(=O)Oc1ccc(F)cc1)c1ccc(CS(C)(=O)=O)cc1-2 [Example 94, 4-fluorophenyl 10-methyl-7-((methylsulfonyl)methyl)-11-oxo-10,11-dihydro-1H-1,4,10-triazadibenzo[cd,f]azulene-4(3H)-carboxylate]
0.7	1.18	1.3	–	–	–	Cn1cc2c3c(c[nH]c3c1=O)CN(c1ccc(C(F)(F)F)cn1)c1ccc(CS(C)(=O)=O)cc1-2 [Example 253, 10-methyl-7-((methylsulfonyl)methyl)-4-(5-(trifluoromethyl)pyridin-2-yl)-3,4-dihydro-1H-1,4,10-triazadibenzo[cd,f]azulen-11(10H)-one]
3.91	1.64	85.2	–	–	–	4-(4-chlorophenyl)-10-methyl-2-(1-methyl-1H-pyrazol-4-yl)-7-(methylsulfonyl)-3,4-dihydro-1H-1,4,10-triazadibenzo[cd,f]azulen-11(10H)-one [Example 271]
1.61	2.57	1.64	–	–	–	Cc1cnc2c(c1)-c1cn(C)c(=O)c3[nH]cc(c13)CN2c1ccc(F)cc1 [Example 11, 4-(4-fluorophenyl)-7,10-dimethyl-3,4-dihydro-1H-1,4,5,10-tetraazadibenzo[cd,f]azulen-11(10H)-one]
3.25	2.39	12.2	–	–	–	COC(=O)NC1CCC(N2Cc3c[nH]c4c(=O)n(C)cc(c34)-c3cc(CS(C)(=O)=O)ccc32)CC1 (stereo not drawn) [Example 225, methyl ((trans)-4-(10-methyl-7-((methylsulfonyl)methyl)-11-oxo-10,11-dihydro-1H-1,4,10-triazadibenzo[cd,f]azulen-4(3H)-yl)cyclohexyl)carbamate]
0.64	0.64	–	–	–	1.36	[2H]C1([2H])c2c[nH]c3c(=O)n(C)cc(c23)-c2cc(CS(C)(=O)=O)ccc2N1c1ccc(F)cc1F [Example 218, 4-(2,4-difluorophenyl)-(3,3-^2H2)-10-methyl-7-((methylsulfonyl)methyl)-3,4-dihydro-1H-1,4,10-triazadibenzo[cd,f]azulen-11(10H)-one]
1.42	17	124	–	–	–	CN1CCN(Cc2[nH]c3c(=O)n(C)cc4c3c2CN(c2ccc(Cl)cc2)c2ccccc2-4)CC1 [Example 146, 4-(4-chlorophenyl)-10-methyl-2-((4-methylpiperazin-1-yl)methyl)-3,4-dihydro-1H-1,4,10-triazadibenzo[cd,f]azulen-11(10H)-one]
3.44	5.51	42.2	–	–	–	COC(=O)CCCN1Cc2c[nH]c3c(=O)n(C)cc(c23)-c2cc(F)cc(F)c21 [Example 50, methyl 4-(5,7-difluoro-10-methyl-11-oxo-10,11-dihydro-1H-1,4,10-triazadibenzo[cd,f]azulen-4(3H)-yl)butanoate]
2.34	3.15	4.41	–	–	–	CC#CCOC(=O)N1Cc2c[nH]c3c(=O)n(C)cc(c23)-c2cc(CS(C)(=O)=O)ccc21 [Example 98, but-2-yn-1-yl 10-methyl-7-((methylsulfonyl)methyl)-11-oxo-10,11-dihydro-1H-1,4,10-triazadibenzo[cd,f]azulene-4(3H)-carboxylate]
